Assay results published in patent US7241771B2, “Oxepane isomer of 42-O-(2-hydroxy)ethyl-rapamycin” (Wyeth, priority 2005, dated 2007).
≈ marks a conversion by molar mass, not a printed value.

Key:
Assay in all cases: Antifungal activity, microtiter MIC
Type in all cases: cell-based
Aspergillus flavusr = Aspergillus flavusr strain S506; RPMI 1640, 35° C., 24–48 hours
Procedure: (§1) Antifungal activity for the compound of this invention was established by evaluation against several strains of fungi. Briefly, the following procedure was used to evaluate such activity. A 96 well microtiter plate was filled (50 μL/well) with RPMI 1640. The compounds to be evaluated were placed in appropriate wells and serial diluted in successive wells to provide several dilutions. The concentrations ranged from […]. An adjusted inoculum of fungi (50 μL) was added to each well and plates were incubated at 35° C. for 24–48 hours.

Candida parapsilosis = settings: RPMI 1640, 35° C., 24–48 hours; for MIC: Lodderomyces parapsilosis
Procedure: as §1

Aspergillus niger = Aspergillus niger strain ATCC 16404, RPMI 1640, 35° C., 24–48 hours
Procedure: as §1

Candida lusitaniae = Candida lusitaniae strain 94-3, RPMI 1640, 35° C., 24–48 hours
Procedure: as §1

Candida rugosa = Candida rugosa strain 94-10, RPMI 1640, 35° C., 24–48 hours
Procedure: as §1

Candida krussii = Candida krussii strain 94-2; RPMI 1640, 35° C., 24–48 hours
Procedure: as §1

Candida tropicalis = settings: RPMI 1640, 35° C., 24–48 hours
Procedure: as §1

Candida pseudotropicalis = Candida pseudotropicalis strain ATCC 28838, RPMI 1640, 35° C., 24–48 hours
Procedure: as §1

Candida zeylanoided = Candida zeylanoided strain 94-15; RPMI 1640, 35° C., 24–48 hours
Procedure: as §1

Aspergillus fumigatus = Aspergillus fumigatus strain ATCC 26933, RPMI 1640, 35° C., 24–48 hours
Procedure: as §1

Candida albicans = settings: RPMI 1640, 35° C., 24–48 hours; for MIC: Candida albicans
Procedure: as §1

[1] = Candida parapsilosis strain 94-8
[2] = Candida parapsilosis strain 94-9
[3] = Candida parapsilosis strain ATCC 90018
[4] = Candida tropicalis strain 94-13
[5] = Candida tropicalis strain 94-14
[6] = Candida albicans strain ATCC 90028

Row | SMILES | Antifungal Activity (MIC) (Aspergillus flavusr) [µg/mL] | Antifungal Activity (MIC) (Candida parapsilosis; [1]) | Antifungal Activity (MIC) (Candida parapsilosis; [2]) [µg/mL] | Antifungal Activity (MIC) (Candida parapsilosis; [3]) | Antifungal Activity (MIC) (Aspergillus niger) [µg/mL] | Antifungal Activity (MIC) (Candida lusitaniae) [µg/mL] | Antifungal Activity (MIC) (Candida rugosa) [µg/mL] | Antifungal Activity (MIC) (Candida krussii) [µg/mL] | Antifungal Activity (MIC) (Candida tropicalis; [4]) [µg/mL] | Antifungal Activity (MIC) (Candida tropicalis; [5]) [µg/mL] | Antifungal Activity (MIC) (Candida pseudotropicalis) | Antifungal Activity (MIC) (Candida zeylanoided) [µg/mL] | Antifungal Activity (MIC) (Aspergillus fumigatus) [µg/mL] | Antifungal Activity (MIC) (Candida albicans; Candida albicans strain 94-1) [µg/mL] | Antifungal Activity (MIC) (Candida albicans; Candida albicans strain 1063) | Antifungal Activity (MIC) (Candida albicans; Candida albicans strain 1117) | Antifungal Activity (MIC) (Candida albicans; [6]) [µg/mL] | also measured
1 | C[C@@H]1[C@H](O)[C@@H](C)/C=C/C=C/C=C/C=C/C=C/C=C/C=C/[C@H](O[C@@H]2O[C@H](C)[C@@H](O)[C@H](N)[C@@H]2O)C[C@@H]2O[C@](O)(C[C@@H](O)C[C@@H](O)[C@H](O)CC[C@@H](O)C[C@@H](O)CC(=O)O[C@H]1C)C[C@H](O)[C@H]2C(=O)O [Amphotericin B] | 0.50 | ≦0.06 μg/mL | 0.125 | ≦0.06 μg/mL | 0.25 | 0.125 | 0.25 | 0.125 | 0.125 | 0.125 | ≦0.06 μg/mL | 0.25 | 0.25 | 0.125 | ≦0.06 μg/mL | ≦0.06 μg/mL | 0.125 | 
2 | COC1CC2CCC(C)C(=O)C(O)(O2)C(=O)N2CCCCC2C(=O)OC(C(C)CC2CCC(OCCO)C(OC)C2)CC(=O)C(C)/C=C(\C)C(O)C(OC)C(=O)C(C)CC(C)/C=C/C=C/C=C/1C (stereo not drawn) [Compound, 1,17-dihydroxy-11-{2-[4-(2-hydroxy-ethoxy)-3-methoxy-cyclohexyl]-1methyl-ethyl}-18,29-dimethoxy-14,16,20,22,28,34-hexamethyl-10,36-dioxa-3-aza-tricyclo[29.4.1.0˜3,8]hexatriaconta-15,23,25,27-tetraen-2,9,13,19,35-pentaone] |  | 0.125 µg/mL |  |  |  |  |  |  | 0.125 |  |  |  |  |  |  |  |  | MIC (Aspergillus flavusr): 8 µg/mL (≈ 8.35 µM); MIC (Candida parapsilosis; ATCC90018, Candida parapsilosis strain ATCC 90018): 0.25 µg/mL (≈ 0.261 µM); MIC (Candida parapsilosis; [2]): 0.125 µg/mL (≈ 0.13 µM); MIC (Aspergillus niger; ATCC16404): 8 µg/mL (≈ 8.35 µM); MIC (Candida lusitaniae; Clavispora lusitaniae): ≤ 0.06 µg/mL; MIC (Candida rugosa; Diutina rugosa): 0.25 µg/mL (≈ 0.261 µM); MIC (Candida krussii): 0.5 µg/mL (≈ 0.522 µM); MIC (Candida tropicalis; [5]): 0.125 µg/mL (≈ 0.13 µM); MIC (Candida pseudotropicalis; Kluyveromyces marxianus, ATCC28838): ≤ 0.06 µg/mL; MIC (Candida zeylanoided): ≤ 0.06 µg/mL; MIC (Aspergillus fumigatus; ATCC26933): 32 µg/mL (≈ 33.4 µM); MIC (Candida albicans; ATCC90028, Candida albicans strain ATCC 90028): 0.125 µg/mL (≈ 0.13 µM); MIC (Candida albicans; Candida albicans strain 94-1): 0.25 µg/mL (≈ 0.261 µM); MIC (Candida albicans; Candida albicans strain 1063): ≤ 0.06 µg/mL; MIC (Candida albicans; Candida albicans strain 1117): 0.125 µg/mL (≈ 0.13 µM)
3 | C[C@@H]1[C@H](O)[C@@H](C)/C=C/C=C/CC/C=C/C=C/C=C/C=C/C(O[C@H]2O[C@H](C)[C@@H](O)[C@H](N)[C@@H]2O)CC2O[C@](O)(CC(O)C(O)CCC(O)CC(O)CC(O)CC(=O)O[C@H]1C)CC(O)C2C(=O)O (stereo partly drawn) [Nystatin] | 2 | 2 µg/mL | 1 | 2 µg/mL | 1 | 1 | 1 | 1 | 1 | 2 | 1 µg/mL | 1 | 2 | 2 | 1 µg/mL | 1 µg/mL | 1 | 
